Measured values as given in patent KR20140065554A, “안토시아닌을 포함하는 항염용 조성물” (대한민국(농촌진흥청장), priority 2012, dated 2014).

How the values were obtained:
Format in all cases: cell-based
[1] = system: LPS-induced NO production in RAW 264.7 (RAW 264.7에서 LPS로 유도된 NO 생성); assay: Inhibition of LPS-induced NO production in RAW 264.7; details: p<0.05
[2] = system: LPS-induced NO production (LPS로 유도되는 NO의 생성); assay: Anti-inflammatory effect assay of peak 2 anthocyanin: inhibition of LPS-induced NO production; details: p<0.05
HepG2 = assay: Protective effect against hydrogen peroxide (H2O2, 0.9 mM)-induced oxidative stress in HepG2; details: HepG2, H2O2 0.9mM, p<0.05

Compound | inhibition of LPS-induced NO production [1] | inhibition at 1 µM ([2]; 1uM) [%] | inhibition at 10 µM ([2]; 10uM) [%] | cell protective effect against H2O2-induced oxidative stress (HepG2)
COc1cc(-c2[o+]c3cc(O)cc(O[C@@H]4O[C@H](CO)[C@@H](O)[C@H](O)[C@H]4O)c3cc2O[C@@H]2O[C@H](CO)[C@@H](O)[C@H](O)[C@H]2O[C@@H]2O[C@H](CO)[C@@H](O)[C@H](O)[C@H]2O)ccc1O (single isomer, unassigned) [Peak 2, Peonidin-3-sophoroside-5-glucoside] | 유의적으로 저해하였다 | 8 | 15 | –
COc1cc(-c2[o+]c3cc(O)cc(O[C@@H]4O[C@H](CO)[C@@H](O)[C@H](O)[C@H]4O)c3cc2O[C@@H]2O[C@H](COC(=O)/C=C/c3ccc(O)c(O)c3)[C@@H](O)[C@H](O)[C@H]2O[C@@H]2O[C@H](COC(=O)/C=C/c3ccc(O)c(O)c3)[C@@H](O)[C@H](O)[C@H]2O)ccc1O (single isomer, unassigned) [Peak 12, Peonidin 3-(6", 6"'-dicaffeoyl sophoroside)-5-glucoside] | – | – | – | 유의적인 세포 보호 효과를 보였다
Peonidin 3-p-hydroxybenzoyl sophoroside-5-glucoside [Peak 4] | 유의적으로 저해하였다 | – | – | –
